Data on five molecules can be found in patent US6583132B1, “Oxidant scavengers” (Duke University, priority 1993, dated 2003).

Experiment [1] can be described thus: SOD activity (McCord and Fridovich). The class given is biochemical. Conditions: In vitro Biochemistry. How it is done: SOD activity can be monitored in the presence and absence of EDTA using the method of McCord and Fridovich (J. Biol. Chem. 244:6049 (1969)). The efficacy of a mimetic can be determined by measuring the effect of the mimetic on the growth of a SOD null E. coli strain versus a wild type strain. Specifically, wild type E. coli (AB1157) and SOD null E. coli. (JI132) can be grown in M9 medium containing 0.2% casamino acids and 0.2% glucose at pH 7.0 and 37° C.; growth can be monitored in terms of turbidity followed at 700 nm spectrophotometrically. Active mimetics can be tested for toxicity in mammalian cell culture by measuring lactate dehydrogenase (LDH) release. Specifically, rat L2 cells (a lung Type II like cell; (Kaighn and Douglas, J. Cell Biol. 59:106a (1973)) can be grown in Ham's F-12 medium with 10% fetal calf serum supplement at pH 7.4 and 37° C.; cells can be seeded at equal densities in 24 well culture dishes and grown to approximately 90% confluence; SOD mimetics can be added to the cells at log doses (eg micromolar doses in minimal essential medium (MEM)) and incubated for 24 hours. Toxicity can be assessed by morphology and by measuring the release of the cytosolic injury marker, LDH (eg on a thermokinetic plate reader), as described by Vassault (In: Methods of Enzymatic Analysis, Bergmeyer (ed) pp. 118-26 (1983); oxidation of NADH is measured at 340 nm). Efficacy of active mimetics can be assessed by determining their ability to protect mammalian cells against methylviologen (paraquat)-induced toxicity. Specifically, rat L2 cells grown as described above and seeded into 24 well dishes can be pre-incubated with various concentrations of the SOD mimetic and then incubated with a concentration of methylviologen previously shown to produce an LC75 in control L2 cells. Efficacy of the mimetic can be correlated with a decrease in the methylviologen-induced LDH release (St. Clair et al, FEBS Lett. 293:199 (1991)). The efficacy of SOD mimetics can be tested in vivo with mouse and/or rat models using both aerosol administration and parenteral injection. For example, male Balb/c mice can be randomized into 4 groups of 8 mice each to form a standard 2×2 contingency statistical model. Animals can be treated with either paraquat (40 mg/kg, ip) or saline and treated with SOD mimetic or vehicle control. Lung injury can be assessed 48 hours after paraquat treatment by analysis of bronchoalveolar lavage fluid (BALF) damage parameters (LDH, protein and % PMN) as previously described (Hampson et al, Tox. Appl. Pharm. 98:206 (1989); Day et al, J. Pharm. Methods 24:1 (1990)). […]
^2SOD activity determined as described by McCord and Fridovich, J. Biol. Chem. […] (1969).

Experiment [2] can be described thus: Catalase activity, Clark oxygen electrode. Format: biochemical. The note with it: 1 mM hydrogen peroxide; oxygen formation over 2 minutes. From the text:
Catalase activity can be monitored by measuring absorbance at 240 nm in the presence of hydrogen peroxide (see Beers and Sizer, J. Biol. Chem. 195:133 (1952)) or by measuring oxygen evolution with a Clark oxygen electrode (Del Rio et al, Anal. Biochem. 80:409 (1977)). Peroxidase activity can be measured spectrophotometrically as previously described by Putter and Becker: Peroxidases. In: Methods of Enzymatic Analysis, H. U. Bergmeyer (ed.), Verlag Chemie, Weinheim, pp. 286-292 (1983. Aconitase activity can be measured as described in Example XI below.
Catalase activity was measured by means of a Clark oxygen electrode using a modified assay previously described by Del Rio et al, Anal. Biochem. 80:409 (1977). Briefly, reactions were performed in a nitrogen degassed phosphate buffer (50 mM, pH 7.8) containing 0.1 mM EDTA at 25° C. Three concentrations of hydrogen peroxide (1-4 mM) and four metalloporphyrin concentrations (0.5-50 μM) were used to determine second order rate constants. The rate of oxygen evolution was followed for 2 minutes.
^3Catalase activity determined as described by Del Rio et al, Anal. Biochem. 80:409 )1977). Metalloporphyrins were assayed at various concentrations in the presence of 1 mM hydrogen peroxide for catalase-like activity. A Clark electrode was used to measure the formation of oxygen from the breakdown of hydrogen peroxide over a period of 2 minutes.

For the next experiment, the system named is rat cortical cells. In words: Neurotoxicity (LDH release) in cortical cell culture. Format: cell-based. As to the method:
(§1) Tissue culture: Mixed neuronal and glial cultures were prepared from embryonic day-18 rat cerebral cortices (Sprague-Dawley, Zivic Miller). Briefly, the cerebral cortices were dissected and enzymatically dissociated by incubation in Ca^++-, Mg^++-free Hank's balanced salt solution (HBSS) supplemented with 10 mM HEPES and 0.25% trypsin for 20 min. at 37° C. The tissue was rinsed and dispersed into single cell suspension by gentle passage through a fire polished Pasteur pipette. The cell suspension was centrifuged and resuspended in Minimum Essential Media (MEM), containing Earle's salts supplemented with 3 g/L glucose, 5% horse serum and 5% fetal bovine serum (growth media). The cells were plated in poly-D-lysine-coated multi-well plates: 12-well plates for aconitase measurement, and 24 well plates for toxicity experiments. Cells were maintained at 37° C. in a humidified incubator with 5% CO2/95% air in growth media. Media was not replaced so as to reduce glial overgrowth and neuronal loss. Mature cells (14-17 days in vitro) were used for all experiments.
(§2) Cell treatment: The growth media was replaced with MEM supplemented with 25 mM glucose (MEM-g). For both neurotoxicity studies and aconitase measurement, cells were incubated in the designated treatment for the indicated length of time at 37° C. Unless otherwise specified, antagonists or SOD-mimetics were added 15 min. prior to agonists. For measurement of neurotoxicity, cells were incubated with treatments for 18 hr at 37° C. in MEM-g. To access the ability of antagonists to inhibit acute NMDA toxicity or rescue cells from an ongoing NMDA insult, an alternate paradigm of NMDA treatment was used in addition to the one describe above. In this paradigm, growth media was replaced with HBSS^+ (Ca^++-, Mg^++-free Hank's Balanced Salt Solution supplemented with 2 mM CaCl2, 1 mM NaHCO3, 10 mM HEPES and 5 μM glycine), cells were treated with vehicle or 100 μM NMDA for 15 min. after which HBSS^+ was replaced with MEM-g and cells were returned to the incubator for 18 additional hrs. Antagonsists or SOD-mimetics were added to the cells 15 min. before NMDA exposure or 15, 30 or 60 min. following final media replacement. For determination of Ca^++-dependence, cells were incubated in HBSS^+ with no added Ca^++. When kainate (KA) was used as an agonist, 100 μM D-APV was routinely included to block secondary NMDA receptor activation. Catalase (100 U/ml) was always included when xanthine plus xanthine oxidase (X+XO) was used as a treatment to rule out the contribution of hydrogen peroxide.
Neurotoxicity studies: Neurotoxicity was determined by the measurement of LDH released in the supernatant media as previously described (Patel et al, Toxicol. Appl. Pharmacol. 115:124 (1991) and Neurotoxicology 14:35 (1992)). LDH was measured by the method of Vassault, Lactate dehydrogenase. In: Methods of Enzymatic Analysis, Bergmeyer HU (ed), Verlag Chemie, Weinheim, pp. 118-126 (1983). Additionally, cell death was confirmed with ethidium-1 homodimer (EthD-1). Briefly, the cells were washed with HBSS, loaded with 20 μM EthD-1 for 30 min,. rinsed and viewed through fluorescence optics. The number of dead cells labeled with EthD-1 were counted in 4-6 randomly selected fields, the numbers averaged to give an estimate of cell death and the experiment was repeated 3 times.
Background: LDH in the medium is a marker of cell lysis.

For another experiment, the system named is aconitase. As to the kind of experiment: Aconitase activity in cortical cell lysates. Format: cell-based, rat. The note with it: 1 mM NOS inhibitor. As to the method:
as §1, §2
Aconitase measurement: For the measurement of aconitase, following treatment with agents, media was removed and cells lysed in ice-cold 50 mM, Tris/HCl, pH 7.4 containing 0.6 mM MnCl2, 1 mM L-cysteine, 1 mM citrate and 0.5% Triton-X 100. The aconitase activity of cell lysates was measured spectrophotometrically by monitoring the formation of cis-aconitate from isocitrate at 240 nm in 50 mM Tris/HCl, pH 7.4, containing 0.6 mM MnCl2 and 20 mM isocitrate at 25° C. (Kreb and Holzach, Biochem. J. 52:527 (1952); Gardner and Fridovich, J. Biol. Chem. 267:8757 (1992)). […] Aconitase activity in cortical cell lysates was inhibited by 0.1 mM potassium ferricyanide or by boiling of sample.

The subject of experiment [3] is J774 macrophages. In words: Mitochondrial respiration (MTT) in J774 macrophages. The class given is cell-based. How it is done:
(§3) Cell culture: J774 macrophages were cultured in DMEM medium, supplemented with L-glutamine (3.5 mmol/L) and 10% fetal calf serum. Cells were cultured in 96-well plates (200 μl medium/well) until confluence. To induce the inducible isoform of nitric oxide synthase (iNOS), fresh culture medium containing E. coli LPS (011:B4, 10 μg/ml) alone or in combination with murine γ-interferon (γ-IFN, 10 U/ml) was added in the presence or absence of the NOS inhibitor, the SOD mimetic of the combination of the two compounds for 24 h. Moreover, cells were exposed to the NO donor compounds S-nitroso-N-acetyl-DL-penicillamine (SNAP) (3 mM) and diethylamine:NO NONOate (DNO) (3 mM) for 24 h or to authentic peroxynitrite (1 mM) for 1 h). Nitride/nitrate concentration in the medium and mitochondrial respiration were then measured as described below.
Measurement of mitochondrial respiration: Cell respiration was assessed by the mitochondrial-dependent reduction of 3-(4,5-dimethylthiazol-2-yl)-2,5-diphenyltetrazolium bromide (MTT) to formazan. Cells in 96-well plates were incubated at 37° C. with MTT (0.2 mg/ml) for 1 hour. Culture medium was removed by aspiration and the cells were solubilized in DMSO (100 μl). The extent of reduction of MTT to formazan within cells was quantitated by the measurement of OD550. All measurements were corrected for the interference of MnTBAP at this wavelength.

In experiment [4] the test system is J774 macrophages. As to the kind of experiment: Nitrite/nitrate production in J774 macrophages. Format: cell-based. How it is done: as §3
Measurement of nitrite/nitrate production: Nitride/nitrate production, an indicator of NO synthesis, was measured in the supernatant. First, nitrate in the culture medium was reduced to nitrite by incubation with nitrate reductase (670 mU/ml) and NADPH (160 μM) at room temperature for 2 h. After 2 h, nitrite concentration in the samples were measured by the Griess reaction, by adding 100 μl of Griess reagent (1% sulfanilamide and 0.1% naphthylethylenediamide in 5% phosphoric acid) to 100 μl samples of conditioned medium. The optical density at 550 nm (OD550) was measured using a Spectramax 250 microplate reader (Molecular Devices, Sunnyvale, Calif.) Nitrate concentrations were calculated by comparison with OD550 of standard solutions of sodium nitrate prepared in culture medium. All measurements were corrected for the interference of MnTBAP at this wavelength.

A value given as a limit tells only on which side of the number the result lay.

“3,3′3″,3′″-Tetramethoxy-4,4′,4″,4′″-(porphine-5,10,15,20-tetrayl)tetrakis (benzoic acid) [Compound 10305]”: in experiment [1], the SOD result is “inactive”. This molecule also registered a Catalase in experiment [2] of 2.2 min⁻¹.

As for `CNC(=N)NCCC[C@H](N)C(=O)O` [L-NMA, N^G-methyl-L-arginine, reference compound], the “NMDA-induced LDH release” value in the experiment with rat cortical cells (1 mM NOS inhibitor) was “unchanged”. Moreover, in the experiment with aconitase, the NMDA-induced aconitase inactivation result was “unchanged”. Also, in the experiment with J774 macrophages [3] (LPS-treated and LPS and IFN-treated cells, 24 h), the “immunostimulation-induced suppression of mitochondrial respiration” value was “restoration of the respiration to an extent comparable with that of 300 μM MnTBAP”. Further, in the experiment on J774 macrophages [4] (LPS-stimulated macrophages), the “change of inhibition of nitrite/nitrate accumulation when applied 6 h after LPS” value was “similar”. Besides, the “inhibition of the production of NO” value in the experiment on J774 macrophages [4] (cells stimulated with LPS or LPS and IFN) is reported as “near-complete inhibition”.

In the case of “Tetra (N,N-dimethyl) 4,4′,4″,4′″-(porphine-5,10,15,20-tetrayl)-tetrakis(benzamide) manganese (III) chloride [Compound 10109]”, the SOD in experiment [1] is recorded as 470 μg/USOD. The Catalase in experiment [2] turned out to be 0.59 min⁻¹.

In experiment [1], “Trimethyl 2,2′,2″, 2′″-tetrahydroxy-4-benzoic acid-4″, 4″, 4′″ (porphine -5,10,15,20-tetrayl)tribenzoate manganese (III) chloride [Compound 10303]” had an SOD of 78 μg/USOD. Further, in experiment [2], the Catalase was 1.4 min⁻¹. Moreover, the “protection against NMDA-induced excitotoxicity” value in the experiment on rat cortical cells (NMDA 50 μM, 25 μM compound) is listed as 100%. In addition, the “protection against kainate-induced excitotoxicity” value with rat cortical cells (kainate 300 μM, 100 μM compound) amounted to 100%.

B1: IFN: murine γ-interferon (protein, UniProt P01580 23-155, looked up)
Interferon gamma: HGTVIESLESLNNYFNSSGIDVEEKSLFLDIWRNWQKDGDMKILQSQIISFYLRLFEVLKDNQAISNNISVIESHLITTFFSNSKAKKDAFMSIAKFEVNNPQVQRQAFNELIRVVHQLLPESSLRKRKRSRC
Regarding B1, the suppression of respiration in the experiment with J774 macrophages [3] (IFN alone, 10 U/ml) is given as < 15%.
